# According to PubChem BioAssay (NCI):
# “And” between values parts separate entries of the source, which are not always exact repeats. Identical values can stand only once.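 Assay format: 96-well plates, 48-hour exposure. GI50 = concentration required for 50% inhibition of growth. TGI denotes the concentration required for complete inhibition of growth.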
# What was measured:
# Assay in all cases: NCI tumour cell line growth inhibition, 48 h
# LOX IMVI melanoma = system: LOX IMVI melanoma
# SK-MEL-28 melanoma = system: SK-MEL-28 melanoma
# NCI-H23 lung = system: NCI-H23 lung
# SW-620 colon = system: SW-620 colon
# MOLT-4 leukemia = system: MOLT-4 leukemia
# 786-0 renal = system: 786-0 renal
# MDA-MB-231 breast = system: MDA-MB-231 breast
# HCC-2998 colon = system: HCC-2998 colon
# NCI/ADR-RES ovarian = system: NCI/ADR-RES ovarian
# T-47D breast = system: T-47D breast
Structure (SMILES),TGI (LOX IMVI melanoma),TGI (SK-MEL-28 melanoma),TGI (NCI-H23 lung),TGI (SW-620 colon),TGI (MOLT-4 leukemia),TGI (786-0 renal),GI50 (LOX IMVI melanoma) [µM],GI50 (MDA-MB-231 breast) [µM],TGI (MDA-MB-231 breast),GI50 (HCC-2998 colon) [µM],TGI (HCC-2998 colon),GI50 (NCI/ADR-RES ovarian) [µM],TGI (NCI/ADR-RES ovarian) [µM],GI50 (SK-MEL-28 melanoma) [µM],GI50 (T-47D breast) [µM],TGI (T-47D breast),GI50 (NCI-H23 lung) [µM],GI50 (SW-620 colon),GI50 (MOLT-4 leukemia),GI50 (786-0 renal) [µM]
Cc1cc2c(=O)cc(-c3ccc(F)cc3)oc2c(C(=O)O)c1C,> 100 µM,> 100 µM,> 100 µM,> 100 µM,> 100 µM,> 100 µM,–,–,–,–,–,–,–,–,–,–,–,–,–,–
O=S(=O)(NCCO)c1cc[c]([Sb](=[O])([OH])[OH])cc1,> 100 µM,> 100 µM,> 100 µM,> 100 µM,> 100 µM,> 100 µM,> 100,> 100,> 100 µM,> 100,> 100 µM,> 100,> 100,> 100,> 100,> 100 µM,> 100,> 100 µM,> 100 µM,> 100
Cc1cc(C)c(C(=O)/C=C/c2ccccc2)c(C)c1,–,–,97.9 µM,48.1 µM,> 100 µM,81.6 µM,–,–,–,–,–,–,–,–,–,–,–,–,–,–
Cc1cc2c(=O)[nH]c(N)nc2nc1C,> 100 µM,> 100 µM,> 100 µM,> 100 µM,–,> 100 µM,–,–,> 100 µM,–,–,–,> 100,–,–,> 100 µM,–,–,–,–
COC(=O)[C@@H](OC)[C@@H]1Cc2cc3cc(OC4CC(OC5CC(O)C(O)C(C)O5)C(O)C(C)O4)c(C)c(O)c3c(O)c2C(=O)[C@H]1OC1CC(OC2CC(OC3CC(C)(O)C(O)C(C)O3)C(O)C(C)O2)C(O)C(C)O1 (stereo partly drawn),> 5.38 µM,0.106 µM,–,> 16.5 µM,–,> 16.5 µM,0.026,0.0479,0.148 µM,0.0365,0.252 µM,0.688,> 16.5,0.0312,0.0421,> 16.5 µM,0.0345,0.04 µM,0.0453 µM,0.0302
COc1cc2c(cc1OC)[C@@H]([C@H](O)c1ccccc1)NCC2,> 100 µM,> 100 µM,> 100 µM,> 100 µM,> 100 µM,> 100 µM,–,–,–,–,> 100 µM,–,–,–,–,–,–,–,–,–
CC(C)(C)N=CN(C=C(c1ccccc1)c1ccccc1)C1CCCCC1,92.3 µM,> 100 µM,> 100 µM,> 100 µM,–,> 100 µM,–,–,–,–,–,–,–,–,–,–,–,–,–,–
N#C/C(=C\c1cccc2cnccc12)N1N=NC2C=CC=CC21 (stereo not drawn),> 100 µM,> 100 µM,> 100 µM,> 100 µM,> 100 µM,> 100 µM,3.01,1.94,8.05 µM,4.32,> 100 µM,3.53,> 100,4.1,0.582,6.4 µM,3.27,3.35 µM,3.21 µM,3.33
O=C(CC1C(=O)Nc2ccccc2S1(=O)=O)Nc1cccc(Cl)c1 (stereo not drawn),28.6 µM,38.7 µM,37.9 µM,31.6 µM,32.3 µM,29.1 µM,–,–,–,–,32.1 µM,–,–,–,–,–,–,–,–,–
COc1ccc2c(c1)CCN1C3=C(CCC3)C(=O)C[C@@H]21,> 100 µM,> 100 µM,> 100 µM,> 100 µM,> 100 µM,> 100 µM,–,–,–,–,> 100 µM,–,–,–,–,–,–,–,–,–
CCCCCCCCCCCCCCNCC(OCC)OCC,32.5 µM,32.5 µM,30.5 µM,31.9 µM,–,33 µM,–,–,–,–,27.3 µM,–,–,–,–,–,–,–,–,–
CC1(C)CC(=O)c2c(ccc(C(=O)C[C@@H](N)CO)c2N)O1,1.11 µM,34.5 µM,> 100 µM,12.7 µM,> 37.4 µM,> 61.4 µM,0.0986,3.13,> 100 µM,0.371,4.63 µM,2.55,> 100,0.595,4.56,> 67.6 µM,1.17,0.234 µM,0.349 µM,11.9
CCN(CC)CCCNc1[nH]ncc2c(C)c3nc4ccccc4c3cc12,1.58 µM and 1.18 µM,13.9 µM and 4.06 µM,1.99 µM and 3.72 µM,2.92 µM and 6.98 µM,0.183 µM and 0.0447 µM,1.58 µM and 4.57 µM,0.328,0.709,2.65 µM and 2.51 µM,0.375,2.12 µM and 3.06 µM,56.1,200,2.83,1.01,17 µM and 20.2 µM,0.583,0.319 µM and 0.529 µM,0.0288 µM,0.346
C[C@@](O)(/C=C/[C@H]1CC=CC(=O)O1)[C@@H](C[C@@H](O)\C=C/C=C\C=C\CO)OP(=O)(O)O,10.1 µM and 6.8 µM,38.8 µM and 25.3 µM,91.6 µM and 68.3 µM,70.9 µM,–,20.2 µM,4.32,–,138 µM,–,22.3 µM,–,143,8.69,–,161 µM,15,–,13.4 µM and 3.71 µM,–
Clc1ccc(C2=NOC3C4CCC(C4)C23)cc1 (stereo not drawn),–,> 100 µM,> 100 µM,> 100 µM,> 100 µM,> 100 µM,–,–,–,–,> 100 µM,–,–,–,–,–,–,–,–,–
COc1ccc(-c2nc(-c3nc4ccc(C(F)(F)F)cc4[nH]3)c3ccccn23)cc1,> 100 µM,> 100 µM,> 100 µM,> 100 µM,> 100 µM,> 100 µM,31.3,50.6,> 100 µM,51.8,> 100 µM,85.3,> 100,> 100,5.33,> 100 µM,> 100,> 100 µM,2.81 µM,> 100
Clc1cccc2c1OCC1C(c3ccccc3)=NN(c3ccccc3)C21 (stereo not drawn),> 100 µM,> 100 µM,> 100 µM,> 100 µM,> 100 µM,> 100 µM,–,–,–,–,> 100 µM,–,–,–,–,–,–,–,–,–
Brc1ccc(C2SCc3nc4ccccc4n32)cc1 (stereo not drawn),21 µM,16.7 µM,15.3 µM,29.2 µM,> 100 µM,26 µM,–,–,–,–,–,–,–,–,–,–,–,–,–,–
Cc1cn2c(/C=N/N=C(N)N)c(-c3ccsc3)nc2s1,3.35 µM,–,30.5 µM,23.3 µM,> 100 µM,19.7 µM,1.6,3.94,17.1 µM,2.34,5.33 µM,22.5,51.5,–,2.7,7.86 µM,15.8,5.67 µM,> 100 µM,5.89
